According to ChEMBL document CHEMBL1201862, “PubChem BioAssay data set” (2004):
Calls of active or inactive are those of the source.

How the values were obtained:
CAAX prenyl protease 1 = CAAX prenyl protease 1 (Saccharomyces cerevisiae S288c, UniProt P47154); experiment: Ste24 protease inhibitors, dose response, biochemical, S. cerevisiae, plate reader, cherry-pick (AID 488815)
Estrogen receptor = biological target: T1, Estrogen receptor (Homo sapiens, UniProt P03372);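 further: potency for inhibiting coactivator peptide recruitment to the receptor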
T1 sequence (P03372 whole entry): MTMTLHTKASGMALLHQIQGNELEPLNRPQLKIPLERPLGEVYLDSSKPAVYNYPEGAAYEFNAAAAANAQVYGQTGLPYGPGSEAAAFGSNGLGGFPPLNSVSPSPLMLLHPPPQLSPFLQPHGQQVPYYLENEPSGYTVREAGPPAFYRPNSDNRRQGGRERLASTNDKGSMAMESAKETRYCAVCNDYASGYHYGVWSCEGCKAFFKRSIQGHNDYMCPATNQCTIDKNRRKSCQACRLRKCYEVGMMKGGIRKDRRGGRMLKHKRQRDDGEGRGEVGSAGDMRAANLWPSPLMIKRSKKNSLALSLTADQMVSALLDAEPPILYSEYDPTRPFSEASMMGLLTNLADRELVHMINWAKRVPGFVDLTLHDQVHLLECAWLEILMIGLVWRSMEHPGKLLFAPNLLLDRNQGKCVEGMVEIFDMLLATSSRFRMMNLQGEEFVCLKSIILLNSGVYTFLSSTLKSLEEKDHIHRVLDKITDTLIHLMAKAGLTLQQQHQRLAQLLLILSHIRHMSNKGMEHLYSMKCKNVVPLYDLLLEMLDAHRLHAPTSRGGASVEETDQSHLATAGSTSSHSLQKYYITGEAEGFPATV

Trypsin = Trypsin (Sus scrofa, UniProt P00761); experiment: porcine trypsin inhibitors, dose response, selectivity assay for Rce1 protease inhibitor project, biochemical, quenched peptide fluorescence, cherry-pick (AID 488789)
Sequence of Trypsin (P00761 whole entry): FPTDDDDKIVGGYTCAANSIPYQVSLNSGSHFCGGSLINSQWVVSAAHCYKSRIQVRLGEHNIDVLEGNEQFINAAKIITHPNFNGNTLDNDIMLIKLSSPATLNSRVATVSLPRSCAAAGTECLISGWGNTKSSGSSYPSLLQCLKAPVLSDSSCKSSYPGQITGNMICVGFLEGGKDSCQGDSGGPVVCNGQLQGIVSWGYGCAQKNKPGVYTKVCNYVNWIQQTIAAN

[1] = biological target: Mitogen-activated protein kinase 10 (Homo sapiens, UniProt P53779); experiment: Dose response biochemical screening assay for inhibitors of c-Jun N-Terminal Kinase 3 (JNK3). [Related pubchem assays: 746 ]
Sequence of Mitogen-activated protein kinase 10 (P53779 whole entry): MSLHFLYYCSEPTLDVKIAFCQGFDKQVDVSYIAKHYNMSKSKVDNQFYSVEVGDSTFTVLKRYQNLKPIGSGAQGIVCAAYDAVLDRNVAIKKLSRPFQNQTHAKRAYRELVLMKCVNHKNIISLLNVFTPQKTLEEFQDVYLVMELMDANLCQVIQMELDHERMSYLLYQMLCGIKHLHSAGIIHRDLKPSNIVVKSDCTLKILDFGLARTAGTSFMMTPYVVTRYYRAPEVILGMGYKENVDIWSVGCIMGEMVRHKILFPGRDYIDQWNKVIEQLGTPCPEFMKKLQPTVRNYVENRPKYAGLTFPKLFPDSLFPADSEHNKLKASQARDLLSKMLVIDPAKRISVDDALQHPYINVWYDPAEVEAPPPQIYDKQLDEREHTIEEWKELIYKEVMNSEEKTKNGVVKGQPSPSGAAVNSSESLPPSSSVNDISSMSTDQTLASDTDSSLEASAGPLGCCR

CAAX prenyl protease 2 = biological target: T2, CAAX prenyl protease 2 (Saccharomyces cerevisiae S288c, UniProt Q03530); type: biochemical
T2 sequence (Q03530 whole entry): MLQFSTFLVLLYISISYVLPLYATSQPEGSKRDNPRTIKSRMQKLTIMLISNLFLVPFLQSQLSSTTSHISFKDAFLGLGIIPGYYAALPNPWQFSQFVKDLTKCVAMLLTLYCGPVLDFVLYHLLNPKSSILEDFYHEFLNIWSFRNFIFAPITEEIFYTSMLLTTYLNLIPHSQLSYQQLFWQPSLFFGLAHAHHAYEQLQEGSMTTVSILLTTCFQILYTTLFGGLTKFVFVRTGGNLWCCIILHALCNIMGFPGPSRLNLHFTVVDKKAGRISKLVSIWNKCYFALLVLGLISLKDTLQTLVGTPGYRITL

[2] = microbe, parasite or virus in culture; type: functional; conditions: Mycobacterium tuberculosis
[3] = biological target: Heat shock protein HSP 90-alpha (Homo sapiens, UniProt P07900); type: functional, organism-based
[4] = C. albicans growth with fluconazole, confirmation, fluorescence, retest (AID 2467); type: functional, cell-based
[5] = inhibitors of intracellular T. cruzi replication, confirmation, NIH3T3 host cells, beta-gal luminescence (AID 2044); type: functional, cell-based;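 further: intracellular parasites grown in NIH/3T3 mouse fibroblasts as host cells; luminescent beta-galactosidase reporter signal from transgenic T. cruzi replicating inside host cells; inhibitors lower the luminescence signal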
[6] = NIH-3T3 fibroblast cytotoxicity, dose response, cytotoxicity control, cell-based, fluorescence, Alamar Blue, secondary assay (AID 2327); type: functional;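 further: NIH-3T3 mouse fibroblasts cultured with fluconazole at 8 µg/mL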
Vero = experiment: cells; type: functional; conditions: Chlorocebus sabaeus
INS1 = experiment: beta cell apoptosis inhibitors, cytokine rescue, dose response, luminescence, retest (AID 449756); type: functional, cell-based; conditions: Rattus norvegicus;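 further: cell death triggered by IL-1 beta plus TNF-alpha plus IFN-gamma mixture; protective hits raise ATP signal compared with cytokine alone wells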
[7] = system: Streptococcus sp. 'group A'; experiment: growth inhibition of control SK(-) GAS strain, dose response, counter-screen for streptokinase expression inhibitor project, luminescence, kanamycin, BacTiterGlo, confirmation (AID 1900); type: functional, organism-based
[8] = biological target: ATP-dependent molecular chaperone HSP82 (Candida albicans (strain WO-1) (Yeast), UniProt C4YTQ8); experiment: loss of DOC-induced GRE-beta-galactosidase reporter signal, dose response, Hsp90 inhibitor project, S. cerevisiae, luminescence (AID 2400); type: functional, cell-based;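 further: beta-galactosidase luminescence from glucocorticoid response element reporter as proxy for Hsp90 function; inhibitor potency where signal loss means Hsp90 inhibition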
Sequence of ATP-dependent molecular chaperone HSP82 (C4YTQ8 whole entry): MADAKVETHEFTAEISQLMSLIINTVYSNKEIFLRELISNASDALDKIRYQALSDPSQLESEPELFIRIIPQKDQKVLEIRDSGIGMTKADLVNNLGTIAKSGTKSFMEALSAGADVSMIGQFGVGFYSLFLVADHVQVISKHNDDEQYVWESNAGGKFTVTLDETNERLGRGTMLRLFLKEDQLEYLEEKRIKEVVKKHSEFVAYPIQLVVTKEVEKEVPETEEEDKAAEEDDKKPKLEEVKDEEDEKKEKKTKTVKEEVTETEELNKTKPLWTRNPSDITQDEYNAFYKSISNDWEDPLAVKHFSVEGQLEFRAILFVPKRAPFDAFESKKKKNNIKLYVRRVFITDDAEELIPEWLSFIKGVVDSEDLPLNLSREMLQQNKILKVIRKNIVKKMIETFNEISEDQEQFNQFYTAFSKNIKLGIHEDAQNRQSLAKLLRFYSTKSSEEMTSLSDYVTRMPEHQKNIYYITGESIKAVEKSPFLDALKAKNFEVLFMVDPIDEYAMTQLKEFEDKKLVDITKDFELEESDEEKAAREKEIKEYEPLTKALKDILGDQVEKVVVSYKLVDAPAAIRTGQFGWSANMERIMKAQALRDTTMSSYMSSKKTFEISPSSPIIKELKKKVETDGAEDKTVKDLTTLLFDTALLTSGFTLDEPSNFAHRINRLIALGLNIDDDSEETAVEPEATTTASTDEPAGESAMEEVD

[9] = biological target: T3, Serine/threonine-protein phosphatase (Candida dubliniensis (strain CD36 / CBS 7987 / NCPF 3949 / NRRLY-17841) (Yeast), UniProt B9W6M3); experiment: Fluorescence Cell-Based Secondary Assay to Identify Inhibitors of Calcineurin. [Related pubchem assays (depositor defined):AID1979, AID2007]; type: functional
T3 sequence (B9W6M3 whole entry): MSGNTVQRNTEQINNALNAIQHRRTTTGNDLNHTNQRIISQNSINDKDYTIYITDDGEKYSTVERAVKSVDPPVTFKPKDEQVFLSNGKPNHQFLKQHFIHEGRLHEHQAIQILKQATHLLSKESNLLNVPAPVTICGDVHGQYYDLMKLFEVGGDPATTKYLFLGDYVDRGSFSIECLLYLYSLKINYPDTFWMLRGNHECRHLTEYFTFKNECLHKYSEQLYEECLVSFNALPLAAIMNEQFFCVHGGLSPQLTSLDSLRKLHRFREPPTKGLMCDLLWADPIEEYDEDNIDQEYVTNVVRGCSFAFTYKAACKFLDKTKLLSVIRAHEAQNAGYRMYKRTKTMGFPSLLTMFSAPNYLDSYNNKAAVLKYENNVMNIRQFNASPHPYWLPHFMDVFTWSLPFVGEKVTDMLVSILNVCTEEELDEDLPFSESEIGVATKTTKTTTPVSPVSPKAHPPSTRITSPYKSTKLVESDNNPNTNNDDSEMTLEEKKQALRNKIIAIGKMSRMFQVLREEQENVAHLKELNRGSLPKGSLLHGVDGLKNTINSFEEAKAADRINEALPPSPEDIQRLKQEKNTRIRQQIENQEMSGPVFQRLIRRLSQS

Streptococcus = experiment: Group A Streptococcus viability loss, dose response, counter-screen for streptokinase expression inhibitor project, luminescence, BacTiterGlo (AID 1915); type: functional, organism-based;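 further: potency for reduction of bacterial viability or growth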
[10] = biological target: T3, Serine/threonine-protein phosphatase; experiment: calcineurin pathway inhibitors in yeast reporter, dose response, S. cerevisiae, CDRE-lacZ, luminescence, secondary (AID 2388); type: functional, cell-based;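 further: yeast reporter cells carrying a calcineurin-responsive lacZ construct stimulated with calcium chloride; luminescent beta-galactosidase reporter signal in whole cells rather than isolated phosphatase activity; potency for inhibition where a drop in reporter signal means calcineurin blockade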
[11] = cytotoxicity toward NIH3T3 fibroblasts, dose response, counter-screen, cell-based, ATP luminescence, mouse fibroblasts (AID 2010); type: functional;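 further: cells exposed to compound for about 90 hours before reading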
[12] = Luminescence Cell-Based/Microorganism Confirmation at Dose of Inhibitors of Trypanosoma cruzi Infection. [Related pubchem assays: 1885, 1968 ]; type: functional
[13] = inhibitors of Trypanosoma cruzi host-cell infection, confirmation, beta-gal luminescence, NIH3T3 host cells (AID 2630); type: functional, cell-based; conditions: Mus musculus
[14] = Luminescence Cell-Based Secondary HTS screen to identify cytotoxic compounds of NIH3T3 cells. [Related pubchem assays: 1885, 1968 ]; type: functional
[15] = biological target: UDP-galactopyranose mutase (Mycobacterium tuberculosis, UniProt P9WIQ1); experiment: Inhibitors of Mycobacterium tuberculosis UDP-galactopyranose mutase (UGM) enzyme Measured in Biochemical System Using Plate Reader - 2105-02_Inhibitor_Dose_CherryPick_Activity. [Related pubchem assays (depositor defined):AID504439]
Sequence of UDP-galactopyranose mutase (P9WIQ1 whole entry): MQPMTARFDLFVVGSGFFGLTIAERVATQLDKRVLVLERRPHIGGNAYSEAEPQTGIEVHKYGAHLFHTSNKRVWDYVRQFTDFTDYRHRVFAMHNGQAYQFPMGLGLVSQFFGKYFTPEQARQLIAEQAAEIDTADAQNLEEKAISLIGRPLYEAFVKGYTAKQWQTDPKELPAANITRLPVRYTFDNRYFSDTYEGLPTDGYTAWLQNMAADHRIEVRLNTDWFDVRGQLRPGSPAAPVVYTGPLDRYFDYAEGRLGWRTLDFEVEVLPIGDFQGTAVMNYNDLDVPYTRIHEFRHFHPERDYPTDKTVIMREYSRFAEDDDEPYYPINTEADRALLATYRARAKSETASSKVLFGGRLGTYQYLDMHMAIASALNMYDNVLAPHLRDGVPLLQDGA

[16] = biological target: T4, Endoribonuclease toxin MazF (Escherichia coli K-12, UniProt P0AE70); experiment: MazF toxin RNase activators, dose response, biochemical, fluorescence, single-stranded RNA substrate, uHTS hits (AID 588481); type: functional
T4 sequence (P0AE70 whole entry): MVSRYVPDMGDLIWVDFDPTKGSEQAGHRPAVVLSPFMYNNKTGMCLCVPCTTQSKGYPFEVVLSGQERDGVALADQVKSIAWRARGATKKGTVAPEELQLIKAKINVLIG

HeLa = experiment: HeLa cell cytotoxicity, dose response, cytotoxicity control, 24 h, cherry-picked samples (AID 504726); type: functional, cell-based; conditions: Homo sapiens;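 further: potency for cytotoxicity as loss of luminescence signal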
[17] = biological target: T4, Endoribonuclease toxin MazF; experiment: fluorescent RNA oligo signal without MazF, dose response, counter-screen for MazEF activator project, biochemical, fluorescence, single-stranded RNase substrate (AID 588502); type: functional
ORF 73 = biological target: T5, ORF 73 (Human herpesvirus 8, UniProt O40947); experiment: inhibitors of C-LANA binding to LBS DNA, dose response, biochemical, fluorescence polarization, cherry-picked samples (AID 504725); parameters: species or system Human gammaherpesvirus 8;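 further: fluorescence polarization of a labeled DNA duplex reporting LANA DNA binding; potency is for inhibitors that block LANA binding to the DNA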
T5 sequence (O40947 whole entry): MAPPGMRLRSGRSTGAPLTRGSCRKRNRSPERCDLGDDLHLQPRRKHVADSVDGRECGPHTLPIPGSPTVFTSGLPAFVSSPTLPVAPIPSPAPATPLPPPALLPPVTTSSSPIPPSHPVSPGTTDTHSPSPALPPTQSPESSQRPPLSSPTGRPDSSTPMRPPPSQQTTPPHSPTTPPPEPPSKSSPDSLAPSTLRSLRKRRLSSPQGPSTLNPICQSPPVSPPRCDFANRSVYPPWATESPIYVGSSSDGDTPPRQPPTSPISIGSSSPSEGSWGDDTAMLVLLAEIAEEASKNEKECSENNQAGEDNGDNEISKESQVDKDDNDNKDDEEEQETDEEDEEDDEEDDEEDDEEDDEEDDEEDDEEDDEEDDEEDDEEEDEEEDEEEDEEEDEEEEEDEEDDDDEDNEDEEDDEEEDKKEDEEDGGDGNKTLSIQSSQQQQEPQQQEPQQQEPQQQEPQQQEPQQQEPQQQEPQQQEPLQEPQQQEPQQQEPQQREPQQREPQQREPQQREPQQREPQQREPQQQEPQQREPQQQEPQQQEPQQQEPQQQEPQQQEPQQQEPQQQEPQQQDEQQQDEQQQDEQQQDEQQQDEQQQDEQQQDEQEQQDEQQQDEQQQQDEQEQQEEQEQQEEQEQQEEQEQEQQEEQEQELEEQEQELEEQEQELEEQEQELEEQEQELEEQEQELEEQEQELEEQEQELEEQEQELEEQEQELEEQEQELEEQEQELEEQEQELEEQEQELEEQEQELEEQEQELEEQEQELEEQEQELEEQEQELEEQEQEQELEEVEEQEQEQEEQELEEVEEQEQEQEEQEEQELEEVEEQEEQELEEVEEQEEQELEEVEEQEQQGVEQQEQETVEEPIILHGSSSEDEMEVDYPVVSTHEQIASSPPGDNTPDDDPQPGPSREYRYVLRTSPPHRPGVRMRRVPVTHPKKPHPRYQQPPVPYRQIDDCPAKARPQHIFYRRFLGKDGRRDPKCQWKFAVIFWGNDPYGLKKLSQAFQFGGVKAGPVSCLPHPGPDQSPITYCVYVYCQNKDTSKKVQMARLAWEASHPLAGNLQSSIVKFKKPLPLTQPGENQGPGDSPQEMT

Keap1/Nrf2 = Keap1/Nrf2 (Homo sapiens, UniProt Q14145); experiment: Keap1-Nrf2 protein-protein interaction inhibitors, dose response, biochemical, fluorescence polarization, cherry-picked samples (AID 588683)
Sequence of Keap1/Nrf2 (Q16236 whole entry): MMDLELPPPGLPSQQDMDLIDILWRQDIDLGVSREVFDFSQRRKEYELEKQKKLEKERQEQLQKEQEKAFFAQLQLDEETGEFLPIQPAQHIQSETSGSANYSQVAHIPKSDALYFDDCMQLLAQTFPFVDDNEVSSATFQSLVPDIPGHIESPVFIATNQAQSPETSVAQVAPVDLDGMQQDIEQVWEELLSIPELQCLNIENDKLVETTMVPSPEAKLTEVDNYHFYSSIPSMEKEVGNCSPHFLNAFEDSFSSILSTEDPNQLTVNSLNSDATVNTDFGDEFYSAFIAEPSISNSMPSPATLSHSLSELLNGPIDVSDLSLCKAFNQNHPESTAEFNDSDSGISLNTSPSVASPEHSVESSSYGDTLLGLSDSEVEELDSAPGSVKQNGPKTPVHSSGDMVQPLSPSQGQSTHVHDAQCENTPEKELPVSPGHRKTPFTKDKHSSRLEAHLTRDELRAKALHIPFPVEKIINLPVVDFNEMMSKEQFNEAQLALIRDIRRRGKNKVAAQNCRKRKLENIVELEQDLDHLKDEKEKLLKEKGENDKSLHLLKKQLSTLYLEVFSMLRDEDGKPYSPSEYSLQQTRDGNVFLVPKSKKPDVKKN
Sequence of Keap1/Nrf2 (Q14145 whole entry): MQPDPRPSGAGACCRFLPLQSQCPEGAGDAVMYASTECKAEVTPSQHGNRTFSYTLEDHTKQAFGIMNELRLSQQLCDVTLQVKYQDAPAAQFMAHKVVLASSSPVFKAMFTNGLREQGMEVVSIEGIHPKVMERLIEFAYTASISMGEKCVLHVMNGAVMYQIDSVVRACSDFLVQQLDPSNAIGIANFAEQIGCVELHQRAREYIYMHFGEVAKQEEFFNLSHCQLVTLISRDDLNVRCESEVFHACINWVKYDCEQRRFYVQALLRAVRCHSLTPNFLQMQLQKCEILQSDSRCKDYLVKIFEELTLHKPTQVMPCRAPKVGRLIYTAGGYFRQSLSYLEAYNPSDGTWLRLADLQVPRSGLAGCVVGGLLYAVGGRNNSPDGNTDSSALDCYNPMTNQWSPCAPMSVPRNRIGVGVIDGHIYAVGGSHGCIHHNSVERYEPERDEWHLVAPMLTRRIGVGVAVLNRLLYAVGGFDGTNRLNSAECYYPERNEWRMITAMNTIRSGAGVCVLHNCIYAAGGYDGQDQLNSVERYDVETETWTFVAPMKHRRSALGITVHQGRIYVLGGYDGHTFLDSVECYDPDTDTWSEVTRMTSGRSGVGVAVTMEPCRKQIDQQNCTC

HEK293 [18] = experiment: SAR Analysis of small molecule inhibitors of B-cell specific antigen receptor-induced NF-kB activation in a HEK-293T cell line using a luminescence assay - Set 2. [Related pubchem assays (depositor defined):AID435022, AID435025, AID489021]; type: functional, cell-based; conditions: Homo sapiens
Jurkat = experiment: SAR Analysis of small molecule inhibitors of […] specific antigen receptor-induced NF-kB activation in a Jurkat cell line using a luminescence assay - Set 3. [Related pubchem assays (depositor defined):AID435022, AID435025, AID465]; type: functional, cell-based; conditions: Homo sapiens
HEK293 [19] = experiment: cytotoxicity in HEK293T NF-kB-Luc cells, SAR follow-up, cytotoxicity control for NF-kB activator project, cell-based, resazurin fluorescence (AID 493251); type: functional; conditions: Homo sapiens

Sequence of CAAX prenyl protease 1 (P47154 whole entry): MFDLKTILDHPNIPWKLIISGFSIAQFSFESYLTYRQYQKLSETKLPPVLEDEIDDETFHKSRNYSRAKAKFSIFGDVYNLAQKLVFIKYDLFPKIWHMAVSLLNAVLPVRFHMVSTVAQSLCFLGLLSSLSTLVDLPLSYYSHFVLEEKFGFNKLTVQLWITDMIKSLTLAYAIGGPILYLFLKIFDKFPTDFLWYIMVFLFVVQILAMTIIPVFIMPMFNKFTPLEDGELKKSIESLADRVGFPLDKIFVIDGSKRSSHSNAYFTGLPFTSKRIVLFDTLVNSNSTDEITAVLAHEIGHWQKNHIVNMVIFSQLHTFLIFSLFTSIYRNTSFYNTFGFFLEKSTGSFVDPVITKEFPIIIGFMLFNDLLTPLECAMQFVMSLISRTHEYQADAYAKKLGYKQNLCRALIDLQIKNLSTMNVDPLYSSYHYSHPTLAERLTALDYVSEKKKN

O=C1c2ccccc2NC2=NCCCCN12
AC50 (CAAX prenyl protease 1): 3.9 µM (active)
IC50 (Estrogen receptor): > 50 µM (not active)
AC50 (Trypsin): 11.4 µM (active)
IC50 [1]: 39.5 µM (not active)
AC50 (CAAX prenyl protease 2): 31.1 µM (active)

O=C(Oc1c(Cl)cc(Cl)c2cccnc12)c1cccs1
CC50 [2]: 17.3 µM (active)
AC50 [3]: 3.28 µM (active)
EC50 [4]: 0.122 µM (active)
EC50 [5]: 2.41 µM (active)
EC50 [6]: 27.3 µM (active)
CC50 (Vero): 16.5 µM (active)
AC50 (INS1): 8.83 µM (active)
EC50 [7]: 1.47 µM (active)
EC50 [8]: 16 µM (active)
EC50 [9]: > 285 µM (inactive)
EC50 (Streptococcus): 1.27 µM (active)
EC50 [10]: > 180 µM (inactive)
EC50 [11]: 9.43 µM (active)

CC(=O)c1cccc(CN2CCCC(CCC(=O)NCc3ccc(F)c(F)c3)C2)c1 (stereo not drawn)
EC50 [5]: < 0.1 µM (active)
EC50 [12]: 0.069 µM (active)
EC50 [13]: 0.069 µM (active)
EC50 (cells): 0.07 µM (active)
EC50 [14]: > 195 µM (not active)
EC50 [11]: > 60 µM (not active)

Cn1nc(-c2ccccc2)c2nc3ccccc3nc21
AC50 [15]: 11.3 µM (active)
EC50 [16]: > 99 µM (inactive)
AC50 (HeLa): 44.5 µM (active)
EC50 [17]: > 99 µM (inactive)
AC50 (ORF 73): 42.5 µM (active)
AC50 (Keap1/Nrf2): 14 µM (active)

CC(C)(C)c1ccc(-c2noc(CCC(=O)NC3CCCCC3)n2)cc1
IC50 (HEK293 [18]): 2.68 µM (active)
IC50 (Jurkat): 19.9 µM (active)
IC50 (HEK293 [19]): > 80 µM (inactive)
